The text below walks through data of patent US4173481A (priority 1976, dated 1979).

Experiment [1] can be described thus: Melting Time in 0.2 N aqueous sodium hydroxide at 60° C. To be noted: 0.2 N NaOH. As to the method:
An emulsion for a green-sensitive layer of a color negative light-sensitivematerial obtained in the same manner as described in Example 1 was divided into four portions, a first portion was used as a control. To the other three portions were added an aqueous solution of Compound 1, 1,3,5-tris(β-vinylsulfonylpropyl)hexahydro-s-triazine (Compound C), bis(vinylsulfonylmethyl) ether (Compound D) in an amount of 1.5 g per 100 g of dry gelatin, respectively. Each emulsion was coated on a subbed polyethylene terephthalate support at a thickness of 5μ and dried.
The strength of the layer was determined using the two methods described below with samples stored at 25° C., 65% RH for 2 days or for 20 days and a sample heat treated at 50° C., 80% RH for 2 days.
A sample strip was immersed in a 0.2 N aqueous solution of sodium hydroxide at 60° C. and the time (min) when the emulsion layer began to melt was measured.

Experiment [2] can be described thus: Strength of gelatin layer surface. The conditions noted are these: 65% RH, 5×10^-5 mol per g of dry gelatin. As to the method:
A sample was immersed in water at 25° C. for 5 minutes. A pin equipped with a steel ball having a radius of 0.2 mm on the point thereof was pressed on the surface of the sample and the pin was moved at a rate of 5 mm per second on the surface of the sample while the load applied to the pin was continuously varied in the range of 0 to 100 g. The load (g) at which a scratch occurred on the surface was measured.
A 5% solution of gelatin was divided into four portions, a first portion was used as a control and to the other three portions were added Compound 1 of the present invention, Compound B and Compound E in an amount of 5×10^-5 mol per g of dry gelatin, respectively. Each gelatin solution was coated on a subbed polyester film support and dried.
After storing the samples obtained under conditions of 25° C., 65% RH, the strength of the gelatin layer surface thereof was determined.

The nature of experiment [3]: Photographic properties (fog, relative sensitivity, maximum density of the magenta dye image). To be noted: 1.5 g per 100 g of dry gelatin, Table 1; for Relative Sensitivity: control = 100; for Maximum Density: magenta dye image. As to the method: A silver iodobromide emulsion containing 6.0 mol % of silver iodide was optimally ripened using a sulfur-containing sensitizer and a gold sensitizer to prepare a high speed negative emulsion. To the emulsion were added anhydro-5,5'-tetrachloro-1,1'-diethyl-3,3'-di-(3-sulfopropyl)-benzimidazolocarbocyanine hydroxide as a spectral sensitizer, 4-hydroxy-6-methyl-1,3,3a,7-tetrazaindene as a stabilizer, and 1-(2,4,6-trichlorophenyl)-3-[3-(2,4-di-tert-amylphenoxyacetamide)benzamido]-5-pyrazolone (which was dissolved in tricresyl phosphate and ethyl acetate and dispersed in gelatin with sodium dodecylbenzenesulfonate) as a magenta color forming coupler to prepare an emulsion for a green-sensitivelayer of a color negative light-sensitive material. The emulsion thus-obtained was divided into four portions and a first portion was used as control. To the other three portions were added an aqueous solution of Compound 1 of the present invention, dimethylol urea (Compound A) and mucochloric acid (Compound B), respectively, in an amount of 1.5 g per 100 g of dry gelatin. Each emulsion was coated on a subbed cellulose triacetate support in a coated coupler amount of 1.5×10^-3 mol/m^2 and dried.
These samples were exposed to green light using an NSG II type sensitometer and processed according to the color processing procedure as described in Example 1 of Japanese patent application (OPI) No. 51940/1976 as follows.
The density of the magenta dye image thus-obtained was measured and fog, relative sensitivity and maximum density were determined.

Regarding “1,3,5-tris(β-vinylsulfonylpropyl)hexahydro-s-triazine [Compound C]”, the “Melting Time” value in experiment [1] (2 Days Heated, 50° C., 80% RH) is 3 min; in experiment [1] (2 Days at 25° C., 65% RH), 1 min; in experiment [1] (20 Days at 25° C., 65% RH), 2.5 min.

As to `C=CS(=O)(=O)CC(O)CS(=O)(=O)C=C` [Compound 1, 1,3-bis(Vinylsulfonyl)-2-propanol], the “Melting Time” value in experiment [1] (2 Days Heated, 50° C., 80% RH) amounted to 30 min; in experiment [1] (2 Days at 25° C., 65% RH), 13.5 min; in experiment [1] (20 Days at 25° C., 65% RH) it was 27 min. In addition, the “Strength of Layer Surface” value in experiment [2] (2 Days at 25° C.) amounted to 48 g; in experiment [2] (7 Days at 25° C.), 56 g; in experiment [2] (14 Days at 25° C.), 58 g; in experiment [2] (21 Days at 25° C.) it was 60 g. The Fog in experiment [3] was 0.10. Further, the “Relative Sensitivity” value in experiment [3] came to 92. For the same molecule, in experiment [3], the “Maximum Density” value is reported as 2.80.

As for `O=C/C(Cl)=C(/Cl)C(=O)O` [Compound B, mucochloric acid], the “Strength of Layer Surface” value in experiment [2] (2 Days at 25° C.) worked out at 21 g; in experiment [2] (7 Days at 25° C.), 36 g; in experiment [2] (14 Days at 25° C.), 45 g; in experiment [2] (21 Days at 25° C.), 52 g. In experiment [3], this molecule registered a Fog of 0.14. In addition, in experiment [3], the “Relative Sensitivity” value was 85. For the same molecule, the “Maximum Density” value in experiment [3] was 2.70.

Consider `C=CS(=O)(=O)CCS(=O)(=O)C=C` [Compound E, 1,2-bis(vinylsulfonyl)ethane], for which the “Strength of Layer Surface” value in experiment [2] (2 Days at 25° C.) is 18 g; in experiment [2] (7 Days at 25° C.), 25 g; in experiment [2] (14 Days at 25° C.), 32 g; in experiment [2] (21 Days at 25° C.), 36 g.
